Where two headings read alike, the source gives them in different places.
Columns and labels:
Assay type in all cases: binding
[1] = biological target: T1, HeLa cell extract proteins (Homo sapiens, UniProt Q01628)
T1 construct: endogenous in cells; host or cells: HeLa cell extract

[2] = biological target: T2, HeLa cell extract proteins (Homo sapiens, UniProt P08865)
T2 construct: endogenous in cells; host or cells: HeLa cell extract

[3] = biological target: T3, HeLa cell extract proteins (Homo sapiens, UniProt P0DMV8)
T3 construct: endogenous in cells; host or cells: HeLa cell extract

[4] = biological target: T4, HeLa cell extract proteins (Homo sapiens, UniProt Q15366)
T4 construct: endogenous in cells; host or cells: HeLa cell extract

[5] = biological target: T5, HeLa cell extract proteins (Homo sapiens, UniProt A3KMH1)
T5 construct: endogenous in cells; host or cells: HeLa cell extract

[6] = biological target: T6, HeLa cell extract proteins (Homo sapiens, UniProt P22234)
T6 construct: endogenous in cells; host or cells: HeLa cell extract
T6 sequence (P22234 1-425): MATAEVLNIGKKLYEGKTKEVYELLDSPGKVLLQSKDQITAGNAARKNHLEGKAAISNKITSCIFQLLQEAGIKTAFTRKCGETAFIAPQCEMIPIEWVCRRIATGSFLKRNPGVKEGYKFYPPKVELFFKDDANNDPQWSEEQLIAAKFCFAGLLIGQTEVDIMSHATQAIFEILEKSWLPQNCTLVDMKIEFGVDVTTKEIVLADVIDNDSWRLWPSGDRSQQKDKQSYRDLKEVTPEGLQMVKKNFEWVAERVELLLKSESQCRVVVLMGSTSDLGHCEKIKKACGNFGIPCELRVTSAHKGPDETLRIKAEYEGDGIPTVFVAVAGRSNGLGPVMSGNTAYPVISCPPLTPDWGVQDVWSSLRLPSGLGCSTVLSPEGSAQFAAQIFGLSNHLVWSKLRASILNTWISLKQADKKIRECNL

[7] = biological target: T7, HeLa cell extract proteins (Homo sapiens, UniProt P07339)
T7 construct: endogenous in cells; host or cells: HeLa cell extract

[8] = biological target: T8, HeLa cell extract proteins (Homo sapiens, UniProt Q96CW5)
T8 construct: endogenous in cells; host or cells: HeLa cell extract

[9] = biological target: T9, HeLa cell extract proteins (Homo sapiens, UniProt Q8NFH4)
T9 construct: endogenous in cells; host or cells: HeLa cell extract
T9 sequence (Q8NFH4 1-326): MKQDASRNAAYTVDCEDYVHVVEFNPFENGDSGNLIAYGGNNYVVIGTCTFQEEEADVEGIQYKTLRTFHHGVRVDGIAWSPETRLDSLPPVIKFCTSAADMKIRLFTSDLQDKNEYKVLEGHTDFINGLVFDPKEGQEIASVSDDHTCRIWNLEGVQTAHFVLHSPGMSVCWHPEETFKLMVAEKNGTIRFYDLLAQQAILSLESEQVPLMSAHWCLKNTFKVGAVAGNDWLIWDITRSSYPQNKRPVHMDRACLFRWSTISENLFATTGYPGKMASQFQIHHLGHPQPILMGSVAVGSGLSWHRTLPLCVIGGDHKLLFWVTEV

[10] = biological target: T10, HeLa cell extract proteins (Homo sapiens, UniProt Q00839)
T10 construct: endogenous in cells; host or cells: HeLa cell extract

[11] = biological target: T11, HeLa cell extract proteins (Homo sapiens, UniProt Q16891)
T11 construct: endogenous in cells; host or cells: HeLa cell extract
T11 sequence (Q16891 34-758): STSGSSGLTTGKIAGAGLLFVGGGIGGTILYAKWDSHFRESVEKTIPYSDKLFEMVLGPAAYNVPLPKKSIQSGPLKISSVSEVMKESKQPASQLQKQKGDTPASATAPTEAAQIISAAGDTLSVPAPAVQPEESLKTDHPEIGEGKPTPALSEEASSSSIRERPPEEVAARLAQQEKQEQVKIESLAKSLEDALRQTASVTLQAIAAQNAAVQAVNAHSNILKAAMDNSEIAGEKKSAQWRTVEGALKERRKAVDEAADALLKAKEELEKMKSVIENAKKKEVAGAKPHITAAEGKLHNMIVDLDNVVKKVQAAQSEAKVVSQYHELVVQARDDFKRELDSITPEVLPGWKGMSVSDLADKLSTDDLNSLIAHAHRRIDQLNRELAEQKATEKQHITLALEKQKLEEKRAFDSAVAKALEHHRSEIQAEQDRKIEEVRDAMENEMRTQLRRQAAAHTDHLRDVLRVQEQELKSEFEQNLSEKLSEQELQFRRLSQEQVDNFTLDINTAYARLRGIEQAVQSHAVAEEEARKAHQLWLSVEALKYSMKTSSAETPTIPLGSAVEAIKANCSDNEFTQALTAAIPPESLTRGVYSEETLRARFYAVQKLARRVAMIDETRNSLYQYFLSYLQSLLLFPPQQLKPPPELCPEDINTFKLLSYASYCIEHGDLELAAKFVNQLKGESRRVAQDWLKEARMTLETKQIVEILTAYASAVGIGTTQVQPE

[12] = biological target: T12, HeLa cell extract proteins (Homo sapiens, UniProt Q96CN7)
T12 construct: endogenous in cells; host or cells: HeLa cell extract
T12 sequence (Q96CN7 1-298): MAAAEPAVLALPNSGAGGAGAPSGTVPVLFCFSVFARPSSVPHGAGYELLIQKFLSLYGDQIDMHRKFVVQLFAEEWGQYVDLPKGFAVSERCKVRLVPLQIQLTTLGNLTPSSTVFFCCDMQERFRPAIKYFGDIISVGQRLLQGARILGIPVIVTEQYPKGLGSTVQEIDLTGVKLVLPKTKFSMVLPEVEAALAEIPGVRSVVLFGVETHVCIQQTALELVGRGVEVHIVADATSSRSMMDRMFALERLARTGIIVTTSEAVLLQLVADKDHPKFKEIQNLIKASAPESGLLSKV

[13] = biological target: T13, HeLa cell extract proteins (Homo sapiens, UniProt Q9H0U4)
T13 construct: endogenous in cells; host or cells: HeLa cell extract
T13 sequence (Q9H0U4 whole entry): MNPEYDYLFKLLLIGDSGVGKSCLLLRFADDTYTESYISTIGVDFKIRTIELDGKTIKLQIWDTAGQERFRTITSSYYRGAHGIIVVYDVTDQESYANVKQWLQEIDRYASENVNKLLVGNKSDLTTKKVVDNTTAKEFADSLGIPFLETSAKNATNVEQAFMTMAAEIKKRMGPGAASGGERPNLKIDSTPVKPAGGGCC

T7 sequence (P07339 65-412): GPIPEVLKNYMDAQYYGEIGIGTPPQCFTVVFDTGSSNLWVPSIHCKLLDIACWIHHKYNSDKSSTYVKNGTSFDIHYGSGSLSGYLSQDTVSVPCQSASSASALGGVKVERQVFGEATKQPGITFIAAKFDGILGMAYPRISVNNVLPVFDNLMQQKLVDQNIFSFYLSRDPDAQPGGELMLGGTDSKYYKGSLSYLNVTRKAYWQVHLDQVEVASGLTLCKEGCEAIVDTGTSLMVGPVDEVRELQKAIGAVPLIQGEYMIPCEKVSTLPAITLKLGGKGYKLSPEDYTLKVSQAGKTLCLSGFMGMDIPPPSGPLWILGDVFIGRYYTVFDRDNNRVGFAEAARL
T5 sequence (A3KMH1 29-1905): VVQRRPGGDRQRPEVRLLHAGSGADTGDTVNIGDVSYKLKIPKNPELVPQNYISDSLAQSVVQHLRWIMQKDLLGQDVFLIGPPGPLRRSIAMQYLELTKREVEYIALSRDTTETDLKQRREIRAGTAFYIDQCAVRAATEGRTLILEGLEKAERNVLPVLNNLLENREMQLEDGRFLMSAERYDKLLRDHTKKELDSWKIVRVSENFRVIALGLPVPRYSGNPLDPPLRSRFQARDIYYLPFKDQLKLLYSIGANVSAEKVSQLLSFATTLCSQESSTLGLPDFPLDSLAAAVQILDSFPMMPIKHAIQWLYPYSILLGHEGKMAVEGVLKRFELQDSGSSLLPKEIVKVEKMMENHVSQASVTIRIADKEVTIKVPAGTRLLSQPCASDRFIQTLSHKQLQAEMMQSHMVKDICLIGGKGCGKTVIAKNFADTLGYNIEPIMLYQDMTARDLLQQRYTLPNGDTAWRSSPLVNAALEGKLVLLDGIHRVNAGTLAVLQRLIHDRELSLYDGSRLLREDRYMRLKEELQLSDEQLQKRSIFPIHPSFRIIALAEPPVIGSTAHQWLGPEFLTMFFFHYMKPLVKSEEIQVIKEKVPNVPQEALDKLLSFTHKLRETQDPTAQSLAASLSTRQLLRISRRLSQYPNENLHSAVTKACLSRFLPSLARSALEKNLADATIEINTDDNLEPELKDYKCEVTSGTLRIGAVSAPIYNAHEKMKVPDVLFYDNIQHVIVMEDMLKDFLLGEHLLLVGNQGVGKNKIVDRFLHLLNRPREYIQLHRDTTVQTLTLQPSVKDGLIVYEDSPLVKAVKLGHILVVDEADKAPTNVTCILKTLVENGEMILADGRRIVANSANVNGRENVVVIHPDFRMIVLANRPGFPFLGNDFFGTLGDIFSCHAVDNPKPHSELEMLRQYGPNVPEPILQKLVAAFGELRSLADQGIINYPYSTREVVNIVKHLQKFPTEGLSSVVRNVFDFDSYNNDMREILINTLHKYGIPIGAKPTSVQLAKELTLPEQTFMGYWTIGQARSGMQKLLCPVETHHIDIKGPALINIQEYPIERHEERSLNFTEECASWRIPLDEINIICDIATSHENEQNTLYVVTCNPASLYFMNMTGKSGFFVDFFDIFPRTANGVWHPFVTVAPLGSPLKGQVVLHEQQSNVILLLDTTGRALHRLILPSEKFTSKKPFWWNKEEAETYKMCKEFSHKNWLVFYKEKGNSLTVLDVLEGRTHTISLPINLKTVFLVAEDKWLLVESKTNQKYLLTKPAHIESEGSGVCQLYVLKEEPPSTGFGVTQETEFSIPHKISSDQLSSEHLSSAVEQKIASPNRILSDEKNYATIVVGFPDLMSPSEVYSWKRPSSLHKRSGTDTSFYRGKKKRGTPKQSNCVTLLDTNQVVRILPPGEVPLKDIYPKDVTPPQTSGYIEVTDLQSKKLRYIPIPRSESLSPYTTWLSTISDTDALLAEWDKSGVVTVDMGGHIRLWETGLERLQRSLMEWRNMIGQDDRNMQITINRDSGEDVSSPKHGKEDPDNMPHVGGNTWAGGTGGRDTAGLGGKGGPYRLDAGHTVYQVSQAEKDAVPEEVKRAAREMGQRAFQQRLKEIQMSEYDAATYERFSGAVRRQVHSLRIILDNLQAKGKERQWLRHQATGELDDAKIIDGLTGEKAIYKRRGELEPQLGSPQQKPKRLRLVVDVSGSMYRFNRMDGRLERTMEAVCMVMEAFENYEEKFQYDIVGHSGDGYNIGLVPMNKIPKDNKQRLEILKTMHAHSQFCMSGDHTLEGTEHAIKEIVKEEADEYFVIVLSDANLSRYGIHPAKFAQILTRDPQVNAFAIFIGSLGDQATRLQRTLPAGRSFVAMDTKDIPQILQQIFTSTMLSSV
T10 sequence (Q00839 whole entry): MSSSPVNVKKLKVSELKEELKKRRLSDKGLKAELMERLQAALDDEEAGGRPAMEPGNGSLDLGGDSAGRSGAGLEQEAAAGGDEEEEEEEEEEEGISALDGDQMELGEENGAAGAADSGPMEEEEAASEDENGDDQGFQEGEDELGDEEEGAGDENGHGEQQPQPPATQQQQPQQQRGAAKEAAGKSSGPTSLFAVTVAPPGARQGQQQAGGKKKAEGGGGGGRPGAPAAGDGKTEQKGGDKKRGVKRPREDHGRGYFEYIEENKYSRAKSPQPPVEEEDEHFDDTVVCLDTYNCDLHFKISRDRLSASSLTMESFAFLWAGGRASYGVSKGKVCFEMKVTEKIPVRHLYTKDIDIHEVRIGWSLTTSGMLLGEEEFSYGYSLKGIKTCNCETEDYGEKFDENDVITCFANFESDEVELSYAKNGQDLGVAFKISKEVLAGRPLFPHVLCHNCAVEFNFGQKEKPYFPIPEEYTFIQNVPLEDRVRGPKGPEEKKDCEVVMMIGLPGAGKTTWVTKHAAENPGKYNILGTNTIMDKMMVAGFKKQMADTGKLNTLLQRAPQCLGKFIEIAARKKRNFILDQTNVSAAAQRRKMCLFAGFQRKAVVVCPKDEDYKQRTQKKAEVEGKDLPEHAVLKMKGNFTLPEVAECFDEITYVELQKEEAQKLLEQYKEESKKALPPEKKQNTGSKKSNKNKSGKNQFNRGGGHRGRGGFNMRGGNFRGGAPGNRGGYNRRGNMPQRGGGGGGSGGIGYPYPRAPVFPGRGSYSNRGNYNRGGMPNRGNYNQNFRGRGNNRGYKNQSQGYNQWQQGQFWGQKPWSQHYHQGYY
T4 sequence (Q15366 whole entry): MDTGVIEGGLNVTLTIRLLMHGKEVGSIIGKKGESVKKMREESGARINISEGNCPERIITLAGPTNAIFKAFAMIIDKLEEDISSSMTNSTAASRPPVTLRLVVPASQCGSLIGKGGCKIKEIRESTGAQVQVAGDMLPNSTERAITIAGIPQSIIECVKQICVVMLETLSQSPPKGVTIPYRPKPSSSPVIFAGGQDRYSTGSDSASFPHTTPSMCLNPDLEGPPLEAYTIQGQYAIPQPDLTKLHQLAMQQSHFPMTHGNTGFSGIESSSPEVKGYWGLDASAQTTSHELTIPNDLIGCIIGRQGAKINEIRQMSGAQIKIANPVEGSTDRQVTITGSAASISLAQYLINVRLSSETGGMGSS
T8 sequence (Q96CW5 whole entry): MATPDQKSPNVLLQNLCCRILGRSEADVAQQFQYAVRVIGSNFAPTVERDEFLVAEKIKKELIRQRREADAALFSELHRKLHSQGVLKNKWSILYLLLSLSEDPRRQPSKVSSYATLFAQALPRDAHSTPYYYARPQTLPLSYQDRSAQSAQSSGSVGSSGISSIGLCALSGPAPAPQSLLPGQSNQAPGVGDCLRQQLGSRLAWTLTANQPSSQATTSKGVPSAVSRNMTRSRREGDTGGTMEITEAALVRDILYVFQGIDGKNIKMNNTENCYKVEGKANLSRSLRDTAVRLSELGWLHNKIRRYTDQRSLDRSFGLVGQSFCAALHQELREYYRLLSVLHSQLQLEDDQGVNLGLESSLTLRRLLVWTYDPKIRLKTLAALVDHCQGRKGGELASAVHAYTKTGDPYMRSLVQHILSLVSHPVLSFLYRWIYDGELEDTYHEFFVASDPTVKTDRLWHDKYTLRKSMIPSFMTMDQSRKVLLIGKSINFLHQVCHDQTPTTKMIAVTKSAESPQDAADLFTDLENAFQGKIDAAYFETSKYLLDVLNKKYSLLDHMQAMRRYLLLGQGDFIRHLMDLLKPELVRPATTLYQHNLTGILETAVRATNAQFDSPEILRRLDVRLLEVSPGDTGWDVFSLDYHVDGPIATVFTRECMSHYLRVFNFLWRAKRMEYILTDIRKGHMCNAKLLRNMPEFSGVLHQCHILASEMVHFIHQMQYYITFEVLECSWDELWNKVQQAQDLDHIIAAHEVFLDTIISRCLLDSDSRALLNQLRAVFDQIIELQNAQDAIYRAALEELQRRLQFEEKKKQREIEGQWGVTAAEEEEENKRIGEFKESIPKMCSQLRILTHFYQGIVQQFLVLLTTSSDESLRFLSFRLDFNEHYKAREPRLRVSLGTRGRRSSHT
T1 sequence (Q01628 whole entry): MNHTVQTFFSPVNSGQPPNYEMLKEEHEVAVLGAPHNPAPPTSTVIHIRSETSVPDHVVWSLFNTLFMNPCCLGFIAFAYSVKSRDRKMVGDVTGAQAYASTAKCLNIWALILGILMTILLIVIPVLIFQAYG

Nc1nc2cccc(-c3ccccc3)c2n1Cc1ccc(Cl)c(Cl)c1 [compound 3]
fold changes relative to vehicle control ([1]; captured protein IFITM3, HeLa): 0.9
fold changes relative to vehicle control ([2]; captured protein RPSA, HeLa): 1.09
fold changes relative to vehicle control ([3]; protein HSPA1A, HeLa): 1
fold changes relative to vehicle control ([4]; protein PCBP2, HeLa): 0.91
fold changes relative to vehicle control ([5]; protein KIAA0564, HeLa): 1.1
fold changes relative to vehicle control ([6]; protein PAICS, HeLa): 0.94
fold changes relative to vehicle control ([7]; protein CTSD, HeLa): 0.95
fold changes relative to vehicle control ([8]; captured protein TUBGCP3, HeLa): 1.02
fold changes relative to vehicle control ([9]; captured protein NUP37, HeLa): 1.01
fold changes relative to vehicle control ([10]; HeLa, protein HNRNPU): 0.96
fold changes relative to vehicle control ([11]; HeLa, protein IMMT): 1.05
fold changes relative to vehicle control ([12]; protein ISOC1, HeLa): 1.03
fold changes relative to vehicle control ([13]; protein RAB1B, HeLa): 1.09

CCCCCCOc1ccc(Cc2cnc(N)nc2N)cc1 [compound 1]
fold changes relative to vehicle control ([1]; captured protein IFITM3, HeLa): 1.07
fold changes relative to vehicle control ([2]; captured protein RPSA, HeLa): 0.97
fold changes relative to vehicle control ([3]; protein HSPA1A, HeLa): 0.97
fold changes relative to vehicle control ([4]; protein PCBP2, HeLa): 0.96
fold changes relative to vehicle control ([5]; protein KIAA0564, HeLa): 0.99
fold changes relative to vehicle control ([6]; protein PAICS, HeLa): 1.07
fold changes relative to vehicle control ([7]; protein CTSD, HeLa): 1.14
fold changes relative to vehicle control ([8]; captured protein TUBGCP3, HeLa): 0.94
fold changes relative to vehicle control ([9]; captured protein NUP37, HeLa): 1.14
fold changes relative to vehicle control ([10]; HeLa, protein HNRNPU): 0.88
fold changes relative to vehicle control ([11]; HeLa, protein IMMT): 0.96
fold changes relative to vehicle control ([12]; protein ISOC1, HeLa): 1.08
fold changes relative to vehicle control ([13]; protein RAB1B, HeLa): 1.14

NCCCNc1ccc(C(=O)NC(CCC(=O)O)C(=O)O)cc1 (stereo not shown) [compound 7]
fold changes relative to vehicle control ([1]; HeLa, protein IFITM3): 1.3
fold changes relative to vehicle control ([2]; HeLa, protein RPSA): 0.84
fold changes relative to vehicle control ([3]; HeLa, captured protein HSPA1A): 0.99
fold changes relative to vehicle control ([4]; protein PCBP2, HeLa): 0.96
fold changes relative to vehicle control ([5]; HeLa, protein KIAA0564): 1.09
fold changes relative to vehicle control ([6]; HeLa, protein PAICS): 0.98
fold changes relative to vehicle control ([7]; HeLa, captured protein CTSD): 0.96
fold changes relative to vehicle control ([8]; HeLa, protein TUBGCP3): 1.01
fold changes relative to vehicle control ([9]; HeLa, protein NUP37): 0.96
fold changes relative to vehicle control ([10]; protein HNRNPU, HeLa): 1.04
fold changes relative to vehicle control ([11]; HeLa, captured protein IMMT): 1.09
fold changes relative to vehicle control ([12]; HeLa, captured protein ISOC1): 1.04
fold changes relative to vehicle control ([13]; HeLa, protein RAB1B): 0.91

CCCCCCOc1cccc(Cc2cnc(N)nc2N)c1 [compound 2]
fold changes relative to vehicle control ([1]; captured protein IFITM3, HeLa): 0.65
fold changes relative to vehicle control ([2]; captured protein RPSA, HeLa): 1.11
fold changes relative to vehicle control ([3]; protein HSPA1A, HeLa): 1.09
fold changes relative to vehicle control ([4]; protein PCBP2, HeLa): 1.28
fold changes relative to vehicle control ([5]; protein KIAA0564, HeLa): 1.11
fold changes relative to vehicle control ([6]; protein PAICS, HeLa): 1.68
fold changes relative to vehicle control ([7]; protein CTSD, HeLa): 1.26
fold changes relative to vehicle control ([8]; captured protein TUBGCP3, HeLa): 1.05
fold changes relative to vehicle control ([9]; captured protein NUP37, HeLa): 0.98
fold changes relative to vehicle control ([10]; HeLa, protein HNRNPU): 1.2
fold changes relative to vehicle control ([11]; HeLa, protein IMMT): 1.14
fold changes relative to vehicle control ([12]; protein ISOC1, HeLa): 1.01
fold changes relative to vehicle control ([13]; protein RAB1B, HeLa): 1.41

NCCOCCOCC(=O)Nc1nc2ncc(CNc3ccc(C(=O)NC(CCC(=O)O)C(=O)O)cc3)nc2c(=O)[nH]1 (stereo not shown) [compound 6]
fold changes relative to vehicle control ([1]; HeLa, protein IFITM3): 1.14
fold changes relative to vehicle control ([2]; HeLa, protein RPSA): 0.97
fold changes relative to vehicle control ([3]; HeLa, captured protein HSPA1A): 1
fold changes relative to vehicle control ([4]; protein PCBP2, HeLa): 1.04
fold changes relative to vehicle control ([5]; HeLa, protein KIAA0564): 1.1
fold changes relative to vehicle control ([6]; HeLa, protein PAICS): 1.22
fold changes relative to vehicle control ([7]; HeLa, captured protein CTSD): 1.12
fold changes relative to vehicle control ([8]; HeLa, protein TUBGCP3): 1
fold changes relative to vehicle control ([9]; HeLa, protein NUP37): 0.9
fold changes relative to vehicle control ([10]; protein HNRNPU, HeLa): 1.18
fold changes relative to vehicle control ([11]; HeLa, captured protein IMMT): 1.03
fold changes relative to vehicle control ([12]; HeLa, captured protein ISOC1): 1.11
fold changes relative to vehicle control ([13]; HeLa, protein RAB1B): 0.98

Nc1nc2[nH]cc(CCc3ccc(C(=O)N[C@@H](CCC(=O)O)C(=O)O)cc3)c2c(=O)[nH]1 [PTX, pemetrexed]
fold changes relative to vehicle control [1]: 1.32
fold changes relative to vehicle control [2]: 0.9
fold changes relative to vehicle control [3]: 0.98
fold changes relative to vehicle control [4]: 1.03
fold changes relative to vehicle control [5]: 0.99
fold changes relative to vehicle control [6]: 0.86
fold changes relative to vehicle control [7]: 1
fold changes relative to vehicle control [8]: 1.06
fold changes relative to vehicle control [9]: 0.91
fold changes relative to vehicle control [10]: 0.92
fold changes relative to vehicle control [11]: 1.01
fold changes relative to vehicle control [12]: 0.99
fold changes relative to vehicle control [13]: 0.93

Nc1nc2c(c(=O)[nH]1)N(C=O)C(CNc1ccc(C(=O)N[C@@H](CCC(=O)O)C(=O)O)cc1)CN2 (stereo partly shown) [LEU, leucovorin]
fold changes relative to vehicle control ([1]; HeLa, protein IFITM3): 1.21
fold changes relative to vehicle control ([2]; HeLa, protein RPSA): 0.87
fold changes relative to vehicle control ([3]; HeLa, captured protein HSPA1A): 1.02
fold changes relative to vehicle control ([4]; protein PCBP2, HeLa): 0.85
fold changes relative to vehicle control ([5]; HeLa, protein KIAA0564): 1
fold changes relative to vehicle control ([6]; HeLa, protein PAICS): 0.97
fold changes relative to vehicle control ([7]; HeLa, captured protein CTSD): 0.96
fold changes relative to vehicle control ([8]; HeLa, protein TUBGCP3): 0.87
fold changes relative to vehicle control ([9]; HeLa, protein NUP37): 0.86
fold changes relative to vehicle control ([10]; protein HNRNPU, HeLa): 0.8
fold changes relative to vehicle control ([11]; HeLa, captured protein IMMT): 0.97
fold changes relative to vehicle control ([12]; HeLa, captured protein ISOC1): 1.09
fold changes relative to vehicle control ([13]; HeLa, protein RAB1B): 0.93

— paper PMC6199744, “Development of Chemical Proteomics for the Folateome and Analysis of the Kinetoplastid Folateome” (ACS Infectious Diseases, 2018)
